Test results as given in patent US20100144873A1, “TREATMENT OF MYOCARDITIS USING FTS” (RAMOT AT TEL-AVIV UNIVERSITY LTD., priority 2007, published 2010).

How the values were obtained:
active GTP-bound Ras = assay: Ras-GTP determination by glutathione S-transferase-RBD pull-down assay in lymphocytes of treated rats; format: in vivo, Lewis rat
Description: (§1) Two groups of rats were induced to develop EAM by immunization with cardiac myosin according to two protocols. In Protocol 1 (prevention regimen), FTS or PBS (control) was administered two (2) days prior to myosin immunization at a dose of 5 mg/kg (FTS pre-treatment before immunization). Thereafter, dosing was continued for a period of fourteen (14) days with administration of FTS or PBS occurring every other day. In Protocol 2 (treatment regimen), FTS or PBS (control) was administered fourteen (14) days after porcine cardiac myosin immunization at a dose of 5 mg/kg (FTS post-EAM). Thereafter, dosing was continued for a period of seven (7) days with administration of FTS or PBS occurring every other day. Under both protocols, the Lewis rats were sacrificed at day 21 and hearts, lymph nodes and spleens were excised for histological and immunological analyses.
The lymphocytes were prepared as mentioned above. Samples containing 1.5 mg protein used for determination of levels of active GTP-bound Ras by the glutathione S-transferase-RBD pull-down assay followed by Western immunoblotting with pan-anti-Ras Ab as detailed in G. Elad-Sfadia, R. Haklai, E. Ballan et al., J. Biol. Chem. 277:37169-75 (2002).

[1] = tested on: experimental autoimmune myocarditis (EAM); assay: Histopathology, Masson trichrome: scar area (collagen deposition) in EAM; format: in vivo, Lewis rat; conditions: FTS 5 mg/kg i.p., vs control rats
Description: (§2) Porcine cardiac myosin (Sigma) was dissolved in PBS to a concentration of 0.4 μg/ul. Each rat was immunized by a single subcutaneous injection in both footpads on day 0 with an emulsion containing 1 mg of cardiac myosin with an equal volume of complete Freund's adjuvant containing 10.0 mg/mL of heat-killed Mycobacterium tuberculosis.
(§3) FTS was provided by Concordia Pharmaceuticals, Inc. (Ft. Lauderdale, Fla.). FTS was stored in chloroform, which was evaporated under a stream of nitrogen immediately before use. The powder was dissolved in absolute ethanol and diluted to the desired concentration in sterile PBS made basic with NaOH. Carrier solution (1000 μl) containing 1.35 mg of FTS (5 mg/kg) was injected intraperitoneally (i.p.) into each rat. Control solution was prepared at the same time, starting with PBS and absolute ethanol.
(§4) Two groups of rats were induced to develop EAM by immunization with cardiac myosin according to two protocols. In Protocol 1 (prevention regimen), FTS or PBS (control) was administered two (2) days prior to myosin immunization at a dose of 5 mg/kg (FTS pre-treatment before immunization). […]
In order to evaluate the severity of scaring of the heart tissue, Masson trichrome staining was performed to assess collagen deposition in the three study groups. […] FIGS. 4B and C illustrate typical representations of the stained sections and quantitative analysis of the results.

[2] = tested on: lymphocytes from lymph nodes of FTS-treated Lewis rats; assay: Lymphocyte proliferation assay (XTT) on lymphocytes from FTS-treated myosin-immunized rats; format: in vivo, Lewis rat
Description: as §2, §3
as §4, with “immunization). Thereafter, dosing was continued for a period of fourteen (14) days with administration of FTS or PBS occurring every other day.” for “immunization).”
Lymphocyte proliferation was evaluated using XTT reagent, according to standard procedures, after 96 h of incubation. […]

[3] = human Phase I, doses up to 1800 mg/day; cited from earlier work
[4] = tested on: IgG anti-myosin antibodies; assay: IgG anti-myosin antibody levels in sera by ELISA; format: in vivo, Lewis rat; conditions: FTS 5 mg/kg i.p., p<0.05 vs control
Description: as §2, §3
as §4, with “immunization). Thereafter, dosing was continued for a period of fourteen (14) days with administration of FTS or PBS occurring every other day.” for “immunization).”

[5] = tested on: myocardial dysfunction following myosin-induced EAM; assay: M-mode echocardiography after six weeks of FTS in EAM; format: in vivo, Lewis rat; conditions: FTS 5 mg/kg from 2 days before myosin immunization, every other day for six weeks; vs PBS-treated
Description: as §2, §3
Another group of experiments was designed to study the effects of FTS on prevention of myocardial dysfunction following myosin-induced EAM. Under this regimen, FTS or PBS was given two (2) days before myosin immunization, then every other day for six (6) weeks (when compromised heart function is expected). After six (6) weeks, M-mode echocardiography was performed as described in George J, Biner S, Keren P, Barshack I, Goldberg I, Sherez J, Levitski A, Keren G, Roth A. Exp Mol. Pathol. 74(3):314-8 2003. […]

[6] = tested on: experimental autoimmune myocarditis (EAM); assay: Histopathology, H&E: severity of myocarditis (Dallas criteria) in EAM; format: in vivo, Lewis rat; conditions: FTS 5 mg/kg i.p., mean±SE, control group 1.61±0.23, p<0.05
Description: as §2, §3
Two groups of rats were induced to develop EAM by immunization with cardiac myosin according to two protocols. […]
Hearts were removed and fixed in 10% formalin, then embedded in paraffin. […] Every fifth section was examined for the presence of myocarditis by light microscopy, and was evaluated according to previously published criteria (the Dallas criteria) describing the severity of myocarditis as follows: severe (2)>50% of the heart involved; moderate (1)=10-50% involved; and minimal (0)=<10% involved, or normal. […]

[7] = tested on: lymphocytes from lymph nodes of rats with EAM; assay: Ex vivo proliferation assay with FTS (XTT, 96 h) on lymphocytes from EAM rats; format: cell-based, rat
Description: FTS was provided by Concordia Pharmaceuticals, Inc. (Ft. Lauderdale, Fla.). FTS was stored in chloroform, which was evaporated under a stream of nitrogen immediately before use. The powder was dissolved in DMSO. This solution was diluted with RPMI/10% FCS to yield a 10 mM drug stock solution containing 10% DMSO. A portion of this solution was applied to the cells at a dilution of 1:100. Ex Vivo Proliferation Assay with FTS Five (5) rats with EAM were sacrificed on day fourteen (14). Lymphocytes were taken from lymph nodes, prepared as described and 1×10^5 cells/well seeded in 96 microwell plates. Lymphocytes were incubated in the presence of Myosin 2.5 μg/ml or Concavalin A in the presence of 0, 3.125, 6.25, 12.5, and 25 μM FTS. Lymphocyte proliferation was evaluated using XTT reagent after 96 h of incubation. To investigate the effect of FTS on the proliferative capacity of lymphocytes from EAM rats against myosin ex vivo, lymph nodes were excised from the EAM rodent models fourteen (14) days following myosin immunizations. Thereafter, lymphocytes were incubated in the presence of (A) myosin (2.5 μg/ml) and (B) Concavalin A (4 μg/ml) with varying concentrations of FTS. […] The proliferation rate was reduced in the presence of 50 μM FTS ex vivo by 48% (FIG. 1B). Thus, proliferation of lymphocytes against potential cardiac epitopes may be attenuated following FTS administration.

[8] = tested on: Ras and its downstream signaling effectors in lymphocytes; assay: Western immunoblotting of total Ras, Erk, P-Erk, Akt, P-Akt in lymphocytes of treated rats; format: in vivo, Lewis rat
Description: as §1
Lymphocytes were obtained from lymph nodes of FTS- and PBS-treated rats. The lymphocytes were homogenized in cold homogenization buffer containing protease inhibitors. Protein concentration was determined by the Bradford assay and samples containing 100 μg protein were used for determination of total Ras, total Erk, P-Erk, total Akt and P-Akt by Western immunoblotting using, respectively: pan-anti-Ras Ab (Ab03; Santa Cruz, Calif.), anti Erk Ab (Santa Cruz, Calif.), anti P-Erk Ab (Sigma), anti Akt Ab (Cell Signaling), and anti P-Akt Ab (Cell Signaling).
Enhanced chemiluminescence (ECL) and densitometric analysis were performed as detailed in R. Haklai, M. G. Weisz, G. Elad, et al., Biochemistry 37:1306-1314 (1998).

[9] = Protocol 1 FTS-treated rats vs control animals
[10] = Protocol 1 FTS-treated rats vs control

Ras-GTP level in lymphocytes (active GTP-bound Ras; [9]): downregulated | ratio of Ras-GTP to total Ras (active GTP-bound Ras; lymphocytes of Protocol 1 FTS-treated rats): did not significantly alter
Structure (SMILES): CC(C)=CCC/C(C)=C/CC/C(C)=C/CSc1ccccc1C(=O)O [FTS, S-farnesylthiosalicylic acid]
collagen deposition (scar formation) ([1]; Protocol 1 (prevention)): reduced collagen deposition | collagen deposition (scar formation) ([1]; Protocol 2 (treatment)): reduced collagen deposition | proliferation in response to non-specific mitogen Concavalin A ([2]; FTS-treated rats vs control animals (data not shown)): not diminished | decrease in lymphocyte proliferation in comparison with PBS ([2]; Protocol 1 (prevention): FTS 5 mg/kg i.p. from 2 days before myosin immunization, every other day for 14 days, p<0.05): ~35% | dose-limiting toxicities [3]: no dose-limiting toxicities | IgG anti-myosin antibody levels ([4]; Protocol 1 (prevention)): significantly reduced levels of IgG anti-myosin antibody | IgG anti-myosin antibody levels ([4]; Protocol 2 (treatment)): significantly reduced IgG anti-myosin antibody levels | fractional shortening (systolic parameter) [5]: improved | left ventricular diastolic diameter [5]: improved | severity of myocarditis (myocarditis score) ([6]; Protocol 1 (prevention)): 0.28±0.15 scale of 0-2 arbitrary units | severity of myocarditis (myocarditis score) ([6]; Protocol 2 (treatment)): 0.33±0.24 scale of 0-2 arbitrary units | reduction of proliferation rate of Concavalin A-treated lymphocytes ([7]; Concavalin A 4 μg/ml, 50 μM FTS ex vivo): 48% | proliferation of Concavalin A-treated lymphocytes vs controls ([7]; Concavalin A 4 μg/ml, varying concentrations of FTS ex vivo): dose-dependent reduction in proliferation | reduction of lymphocyte proliferation to myosin ([7]; myosin 2.5 μg/ml, FTS 25 and 50 μM, ex vivo, vs controls, p<0.05): 79±7% | phospho-Akt level in lymphocytes [8, 10]: significant decrease | phospho-Erk level in lymphocytes [8, 10]: significant decrease | total Akt level in lymphocytes [8, 10]: not affected | total Erk level in lymphocytes [8, 10]: not affected | total Ras level in lymphocytes [8, 9]: downregulated
